Test results: patent US10299714B2, “Blood collection devices containing blood stabilization agent including variegin or analog thereof and/or a polysulfated disaccharide” (Becton, Dickinson and Company, priority 2010, dated 2019)
Structures can show the parent of a compound that is named as a salt. Non-standard residues stand in square brackets, D forms with d. Residues, ends and D or L forms follow the SMILES beside them. Oic = O=C(O)[C@@H]1C[C@@H]2CCCC[C@@H]2N1; Phe(4-Me) = Cc1ccc(C[C@H](N)C(=O)O)cc1

Tests used:
whole blood sample [1] = assay: Visual inspection of stored whole blood sample for hemolysis; type: cell-based, human; conditions: Table 5
Text: Skilled practitioners will appreciate the hemolyzed samples are an obvious visual clue that damage to blood cells has occurred, either during the collection, transport, or storage of blood samples. Although hemolysis is not necessarily detrimental to any one clinical assay, it is a well known interference for some tests, and thus it is preferable to avoid causing hemolysis. Hemolysis can be measured by visual scale (e.g., mild or slightly pink, moderate or noticeably red, or severe or dark red). Hemolysis can also be measured by spectroscopic measurement of the red color of the hemoglobin itself, and can be reported by the concentration of hemoglobin released into the serum or plasma (e.g., such that less than about 20 mg/dL concentration of released hemoglobin, or to an extent that the hemoglobin concentration cannot be measured visually or by spectroscopy represents “minor or negligible” hemolysis, about 20 to about 100 mg/dL represents “mild” hemolysis, about 100 to about 300 represents “moderate” hemolysis, or greater than about 300 mg/dL represents “severe” hemolysis).
(§1) The results are shown in Table 5 which lists additives alone or in combination that were spiked into freshly drawn whole blood samples. […] For some of the conditions tested, only a subset of these three parameters was recorded.

platelets [2] = assay: Whole blood impedance aggregometry (Multiplate): platelet aggregation after room temperature storage of drawn blood; type: cell-based, human
Text: The blood was allowed to stand at room temperature, in undisturbed aliquots, until tested at the times indicated. Samples were inverted several times immediately prior to testing, to re-suspend blood cells that naturally settle over time.
Measurements: Testing of platelet function (which in this experiment, was aggregation activity) was done using the Multiplate instrument (Verum Diagnostics, Munich, Germany), which uses whole blood as the sample and an increase in impedance as the measurement of platelet aggregation. The instrument was used per manufacturer's instructions. Briefly, 300 microliters of isotonic saline was warmed in each reaction cuvette, and to this was added 300 microliters of the whole blood sample. In reactions where aspirin or other platelet antagonists (inhibitors) were added in vitro, 20 microliters (μL) of a stock solution of aspirin was spiked into the samples. The aggregation reaction was initiated by addition of a platelet agonist, in this case collagen, at 3.2 μg/ml and volume (20 μl) per manufacturer's instructions. Upon addition of the collagen, the impedance measurements began automatically, and were continued for 6 minutes, representing the full course along the x-axis in the graphs shown in FIG. 2. The graphs show platelet aggregation, as reported by impedance, as an arbitrary unitless measurement on the y-axis, over the 6-minute run time on the x-axis. Traces shown are raw platelet aggregation data delivered from the instrument. […] Representative data are shown for blood that dwells at room temperature after the initial draw for 1 hr, 24 hr, 48 hr, and 72 hr. Data are shown for the blood itself, as well for blood pre-treated with aspirin to inhibit platelet function immediately prior to testing.
The experiments were performed as described in Example 1. In this case, the data are plotted as a function of time that the blood sample dwells outside of the body (x-axis) versus platelet function as shown as the area under the curve (AUC) as one representation of the platelet aggregation signal. AUC is the integrated signal from the raw data traces shown in Example 1, and also is reported as a unitless measurement. The effective background level of the instrument is drawn as a dashed line across the bottom of the graph. Any AUC measurement of aggregation at or below this level was considered so weak as to be unreportable, essentially representing a “null” data level.
(§2) Relative stability of platelets was examined with respect to a range of concentrations of variegin (SEQ ID NO:1). Experiments were performed as described above, using either collagen or adenosine diphosphate (ADP) as agonists, all per manufacturer's recommended protocols. Table 2 lists a qualitative assessment of stability, namely how long after initially drawing the blood was platelet aggregation measureable above the effective instrument baseline, the time to first visual observation of clotted, insoluble material in the whole blood sample, and an assessment of the severity or extent of the presence of this insoluble material was also recorded.
These peptides were used as the blood stabilization agent, and were spiked into blood immediately after collection into an empty, evacuated blood collection tube, achieving a final concentration of 150 μM. The blood was allowed to dwell in a whole-blood state at room temperature, until assayed for platelet aggregation potential, all as described in Example 1. Agonists used included collagen and ADP, following manufacturer's instructions.

platelets [3] = assay: Platelet aggregation measurements using low dose ADP agonist, inventive tube versus hirudin tube; type: cell-based, human; parameters: key to Aggregation, AUC: area under curve of impedance aggregation trace, arbitrary unitless units; conditions: ADP 1.25 μM
Experimental: Measurements: Testing of platelet function (which in this experiment, was aggregation activity) was done using the Multiplate instrument (Verum Diagnostics, Munich, Germany), which uses whole blood as the sample and an increase in impedance as the measurement of platelet aggregation. The instrument was used per manufacturer's instructions. Briefly, 300 microliters of isotonic saline was warmed in each reaction cuvette, and to this was added 300 microliters of the whole blood sample. In reactions where aspirin or other platelet antagonists (inhibitors) were added in vitro, 20 microliters (μL) of a stock solution of aspirin was spiked into the samples. The aggregation reaction was initiated by addition of a platelet agonist, in this case collagen, at 3.2 μg/ml and volume (20 μl) per manufacturer's instructions. Upon addition of the collagen, the impedance measurements began automatically, and were continued for 6 minutes, representing the full course along the x-axis in the graphs shown in FIG. 2. The graphs show platelet aggregation, as reported by impedance, as an arbitrary unitless measurement on the y-axis, over the 6-minute run time on the x-axis. Traces shown are raw platelet aggregation data delivered from the instrument. The duplicate traces evident in some of the graphs represent two duplicate measurement channels that always ran simultaneously, to assist with statistical significance of the data, and often so closely overlap as to look like only a single trace in some graphs. Representative data are shown for blood that dwells at room temperature after the initial draw for 1 hr, 24 hr, 48 hr, and 72 hr. Data are shown for the blood itself, as well for blood pre-treated with aspirin to inhibit platelet function immediately prior to testing.
Relative stability of platelets was examined in blood that was collected from 5 different human subjects using an inventive blood collection tube containing 150 μM variegin (SEQ ID NO:1)+1.17 USP/mL unfractionated heparin, and as a comparison, blood collection tubes containing hirudin, commercially available from Verum Diagnostica (Catalog #MP0600 for “Hirudin vacuum blood collection tube”). Experiments were carried out as described above in Example 1, using the whole blood impedance aggregometer, and using a low dose of ADP (1.25 μM final concentration) as the agonist.

whole blood sample [4] = assay: Visual inspection of stored whole blood sample for clotted, insoluble material; parameters: species or system human; conditions: peptide 150 μM; room temperature
Experimental: as §2
These peptides were used as the blood stabilization agent, and were spiked into blood immediately after collection into an empty, evacuated blood collection tube, achieving a final concentration of 150 μM. The blood was allowed to dwell in a whole-blood state at room temperature, until assayed for platelet aggregation potential, all as described in Example 1. Agonists used included collagen and ADP, following manufacturer's instructions. Table 4 lists a qualitative assessment of stability, namely how long after initially drawing the sample was platelet aggregation measureable above the effective instrument baseline. Additionally, the time to first visual observation of clotted, insoluble material in the whole blood sample, and an assessment of the severity or extent of the presence of this insoluble material was also recorded. In some cases, only visual characterization of the amount of insoluble material was reported, without having performed any platelet aggregation measurements.
as §1

[5] = Table 4, peptide spiked into blood to 150 μM final, collagen and ADP, room temperature

O=S(=O)(O)OC[C@H]1O[C@@](COS(=O)(=O)O)(O[C@H]2O[C@H](COS(=O)(=O)O)[C@@H](OS(=O)(=O)O)[C@H](OS(=O)(=O)O)[C@H]2OS(=O)(=O)O)[C@@H](OS(=O)(=O)O)[C@@H]1OS(=O)(=O)O [SOS, sucrose octasulfate]
Visual inspection for hemolysis (whole blood sample [1]; additive alone at 2 mM): None-mild

Cc1ccc(C[C@H](NC(=O)[C@@H](C)NC(=O)[C@@H]2CCCN2C(=O)[C@@H]2C[C@@H]3CCCC[C@@H]3N2C(=O)[C@H](N)CCCN=C(N)N)C(N)=O)cc1 [Thrombostatin (FM-19), rOicPaF(p-Me)—NH2] (H-[dR][Oic]P[dA][Phe(4-Me)]-NH2)
Visual inspection for hemolysis (whole blood sample [1]; additive alone at 30 μM): None-mild

O=C(O)CC(O)(CC(=O)O)C(=O)O [citrate, sodium citrate, reference compound]
platelet aggregation, area under the curve (AUC), FIG. 3 (platelets [2]; 24 hr after draw, collagen, no aspirin): very close to the effective null level | platelet aggregation, area under the curve (AUC), FIG. 3 (platelets [2]; 48 hr after draw, collagen, no aspirin): no meaningful aggregation was detected | platelet aggregation signal (impedance, FIG. 2) (platelets [2]; all times longer than 1 hr (24, 48, 72 hr), collagen, sodium citrate ([…]) tube): clearly lost, resulting in almost non-measureable signal | loss of platelet function relative to the 1 hr sample (FIG. 4) (platelets [2]; within 24 hr, collagen, average of three human subjects): lost well more than half of their function

CC[C@H](C)[C@H](NC(=O)[C@H](C)NC(=O)[C@H](CCC(=O)O)NC(=O)[C@H](Cc1ccccc1)NC(=O)[C@H](CC(=O)O)NC(=O)[C@H](Cc1ccccc1)NC(=O)[C@@H]1CCCN1C(=O)[C@@H]1CCCN1C(=O)[C@H](C)NC(=O)[C@@H](NC(=O)[C@H](CCCCN)NC(=O)[C@H](Cc1cnc[nH]1)NC(=O)[C@H](CCSC)NC(=O)[C@H](CCCCN)NC(=O)[C@@H]1CCCN1C(=O)[C@H](CCC(=O)O)NC(=O)[C@H](C)NC(=O)[C@@H](NC(=O)[C@H](CC(=O)O)NC(=O)CNC(=O)[C@H](CCC(N)=O)NC(=O)[C@H](CC(=O)O)NC(=O)[C@@H](N)CO)C(C)C)[C@@H](C)O)C(=O)N1CCC[C@H]1C(=O)N[C@@H](CCC(=O)O)C(=O)N[C@@H](CCC(=O)O)C(=O)N[C@@H](Cc1ccc(O)cc1)C(=O)N[C@@H](CC(C)C)C(=O)N[C@@H](CC(=O)O)C(=O)N[C@@H](CC(=O)O)C(=O)N[C@@H](CCC(=O)O)C(=O)N[C@@H](CO)C(=O)O [variegin]
platelet aggregation signal (impedance, FIG. 2) (platelets [2]; 24 and 48 hrs after draw, collagen, tube with 150 μM variegin, room temperature): preserved platelet function substantially at the level of function measured in the 1 hr-old sample | platelet aggregation, area under the curve (AUC), FIG. 3 (platelets [2]; 72 hr after draw, collagen, 150 μM variegin): meaningful measurements even at 72 hr | platelet aggregation signal (impedance, FIG. 2) (platelets [2]; 72 hr after draw, collagen, tube with 150 μM variegin, room temperature): slightly reduced but still sufficiently strong | Time after blood draw where aggregation was still measurable above baseline (platelets [2]; Table 2, 2 μM variegin, collagen or ADP, room temperature): 2 h | Time after blood draw where aggregation was still measurable above baseline (platelets [2]; Table 2, 15 μM variegin, collagen or ADP, room temperature): 24 h | Time after blood draw where aggregation was still measurable above baseline (platelets [2]; Table 2, 50 μM variegin, collagen or ADP, room temperature): 24 h | Time after blood draw where aggregation was still measurable above baseline (platelets [2]; Table 2, 75 μM variegin, collagen or ADP, room temperature): 48 to 72 h | Time after blood draw where aggregation was still measurable above baseline (platelets [2]; Table 2, 150 μM variegin, collagen or ADP, room temperature): ≥ 72 h | Time after blood draw where aggregation was still measurable above baseline (platelets [2]; [5]): 72 h | platelet aggregation signal maintained relative to the 1 hr sample (FIG. 4) (platelets [2]; as of 48 hr, collagen, average of three human subjects, 150 μM variegin): well more than half of the signal was maintained | strength of platelet aggregation signal (impedance, FIG. 2) (platelets [2]; fresh sample, 1 hr after draw, collagen […], tube with 150 μM variegin or sodium citrate ([…]), room temperature): higher than the citrate reference sample | Visual inspection for hemolysis (whole blood sample [1]; additive alone at 150 μM): None-mild

GDVAEPKMHKTAPPFDFEAIPEEYLDDES (Synthetic Peptide Variegin Fragment) [Ct29]
Time after blood draw where aggregation was still measurable above baseline (platelets [2]; [5]): 54 to 79 h

Hirudin
Aggregation, AUC (platelets [3]; 0 hr, Subject 1): 34 | Aggregation, AUC (platelets [3]; 0 hr, Subject 2): 18 | Aggregation, AUC (platelets [3]; 0 hr, Subject 3): 84 | Aggregation, AUC (platelets [3]; 0 hr, Subject 4): 113 | Aggregation, AUC (platelets [3]; 0 hr, Subject 5): 59 | Aggregation, AUC (platelets [3]; 24 hr, Subject 1): 27 | Aggregation, AUC (platelets [3]; 24 hr, Subject 2): 15 | Aggregation, AUC (platelets [3]; 24 hr, Subject 3): 25 | Aggregation, AUC (platelets [3]; 24 hr, Subject 4): 22 | Aggregation, AUC (platelets [3]; 24 hr, Subject 5): 37 | area under the curve for the 1 h sample (platelets [3]; one of the five samples): 18 | aggregation (AUC), mean +/- spread of the 5 samples (platelets [3]; time zero): 62+/−38

SDQGDVAEPAMHKTAPPFDFEAIPEEYLDDES (Synthetic Peptide Variegin Fragment) [K10A]
time after blood draw to solid clotting of the sample (whole blood sample [4]): ≤ 4 h

heparin [reference compound]
blood stabilization performance (data not shown) (platelets [2]; used alone at 1.17 U/ml): performed relatively poorly
